Measurements: patent US9611281B2, “BODIPY derivatives and methods of synthesis and use thereof” (The Board of Regents of the University of Oklahoma, priority 2013, dated 2017)

Legend:
[1] = Optical properties (absorption, emission, extinction coefficient) of BDP635 and derivative SBDPiRs; format: physicochemical
[2] = Singlet oxygen generation, indirect method of DPBF photooxidation; conditions: DPBF photooxidation monitored at 410 nm
Procedure: (§1) Singlet oxygen generation and photostability: A singlet oxygen generation experiment on compound 53 using the indirect method of DPBF photooxidation was performed. There were strong similarities of the behavior of 53 towards DPBF with SBDPiR715. […] The photooxidation of DPBF was monitored by UV-vis spectrophotometer at 410 nm. […] Additionally, less than 30% of 53 photobleached under the harsh light illumination condition over a period of an hour, which is a strong evidence for photostability (FIG. 21).

[3] = Photostability (photobleaching under light illumination); format: physicochemical
Procedure: as §1

nude mice = test: In vivo optical imaging with Compound 53; set-up: species or system mouse; conditions: for in vivo fluorescence image: 2.5 μmol/kg i.p.
Procedure: Optical imaging was performed with an IVIS Spectrum small-animal in vivo imaging system (Caliper LS). The Living Image Software v3.0 (Caliper LS) was used to analyze images and measurements of fluorescent signals. Excitation and emission wavelengths of 720 nm and 760 nm, respectively, were used to acquire in vivo fluorescent images of Compound 53 (M.W=[…]). All images were attained using a 1-s exposure time and an f/stop of 1, with a sampling of multiple angles with animal under Isoflurane anaesthesia. Animals were injected with 2.5 μmol/kg (2 mg/kg) of 53 via i.p. administration.

[4] = test system: BALB/c mice bearing colon-26 cells (mouse colon carcinoma cells); test: In vivo imaging with SBDPiR790; conditions: 2.5 μmol/kg i.p.
Procedure: Female Balb/c mice were purchased from NCI (Federick, Md.). Mice were housed and handled in the College of Pharmacy animal facility, University of Oklahoma Health Sciences Center, Oklahoma City, Okla. All animal experiments were approved by IACUC, University of Oklahoma Health Sciences Center (personal approval was offered). Injection solution of SBDPiR790 was prepared by solubilizing it in DMSO (4 mM), and then it was diluted with 1% Tween 80-5% dextrose solution (PBS). The solution was filtered through a 0.2 μm sterile syringe filter before i.p. injection.
BALB/c mice bearing colon-26 cells (mouse colon carcinoma cells) were used for this study. 6-8 week old Balb/c mice were shaved and depilated with hair removal cream (Nair) at the upper back. The mice were subcutaneously inoculated with colon 26 cells at the neck region with […] in 0.1 ml PBS solution. Tumors with 4-6 mm diameter size were made in a week. The in vivo Xtreme imaging system (Carestream Health, Inc.) was used in acquiring images as mice were kept under safe anaesthesia using Isoflurane. The instrumental conditions for the imaging were as follows: fluorescence mode with excitation 760 nm and emission 830 nm; exposure time 5 sec; F/stop: 2 and pixel 2×2. Images collected were then processed using the Carestream MI imaging software to equally adjusted minima and maxima scale.
All mice received 2.5 μmol/kg of SBDPiR790 (MW=636.11 g/mol) solution in PBS (0.2 ml) via i.p. injection. Images were taken at 0 (before), 15 minutes, 3, 6, and 24 hours postinjection. […] Particularly SBDPiR790 can be a practical alternative to the sole clinically approved NIR probe, ICG. The stability, and excellent photophysical properties of SBDPiR790 and its lipophilic character make it useful for varied applications including cancer diagnosis and neurological imaging taking advantage of its ability to cross the blood-brain barrier.

Row | Compound | λabs [1] [nm] | λflu [1] [nm] | ε [1] | also measured
1 | 2,8-Di(bromo)-11-trifluoromethyl-dithieno[2,3-b]-[3,2-g]-5,5-difluoro-5-bora-3a,4a-dithio-s-indacene [BDP635] | 635 | 650 |  | 
2 | COC(=O)c1ccc(C2=C3C=c4sc(-c5ccc(OC)cc5)cc4=[N+]3[B-](F)(F)n3c2cc2sc(-c4ccc(OC)cc4)cc23)cc1 [Compound 50, 2,8-Di(4-Methoxy-phenyl)-11-benzoic acid methyl ester-dithieno[2,3-b]-[3,2-g]-5,5-difluoro-5-bora-3a,4a-diaza-s-indacene] |  |  |  | fluorescence [1]: relatively low fluorescence; 0-0 absorption ([1]; in CHCl3): 685 nm; molar extinction coefficient ([1]; in CHCl3): 85 000 M^−1 cm^−1
3 | O=C(O)COc1ccc(-c2sc3c(c2Br)=[N+]2C(=C(C(F)(F)F)c4cc5sc(-c6ccc(OCC(=O)O)cc6)c(Br)c5n4[B-]2(F)F)C=3)cc1 [Compound 53, 3,7-Dibromo-2,8-di(4-Carboxymethoxy-phenyl)-11-trifluoromethyl-dithieno[2,3-b]-[3,2-g]-5,5-difluoro-5-bora-3a,4a-diaza-s-indacene] |  |  |  | singlet oxygen generation [2]: potent singlet oxygen generator; photostability compared with m-THPC [3]: relatively better than the clinically approved m-THPC (Foscan); fraction photobleached ([3]; harsh light illumination over a period of an hour): less than 30%; in vivo fluorescence signal (nude mice; 2.5 μmol/kg (2 mg/kg) i.p., ex 720 nm / em 760 nm): Bright fluorescence signals were detected; in vivo fluorescence image (nude mice; 5 and 10 minutes): two bright areas were observed in the mid-body; in vivo fluorescence image (nude mice; 3 hours and 6 hours): most skin showed bright emission; in vivo fluorescence image (nude mice; 12 hours): the intensity of skin was lower than the 3 hour and 6 hour images
4 | F[B-]1(F)n2c(cc3sc(Oc4ccc(-c5ccccc5)cc4)cc32)C(C(F)(F)F)=C2C=c3sc(Oc4ccc(-c5ccccc5)cc4)cc3=[N+]21 [SBDPiR650, 2,8-Di(biphenyl-4-yloxy)-11-trifluoromethyl-dithieno[2,3-b]-[3,2-g]-5,5-difluoro-5-bora-3a,4a-diaza-s-indacene] | 649 | 660 | 83 000 M^−1 cm^−1 | 
5 | COc1ccc(Oc2cc3c(s2)=CC2=C(C(F)(F)F)c4cc5sc(Oc6ccc(OC)cc6)cc5n4[B-](F)(F)[N+]=32)cc1 [SBDPiR650_OMe, 2,8-Di(4-methoxyphenoxy)-11-trifluoromethyl-dithieno[2,3-b]-[3,2-g]-5,5-difluoro-5-bora-3a,4a-diaza-s-indacene] | 649 | 660 | 118 000 M^−1 cm^−1 | 
6 | F[B-]1(F)n2c(cc3sc(Sc4ccccc4)cc32)C(C(F)(F)F)=C2C=c3sc(Sc4ccccc4)cc3=[N+]21 [SBDPiR700, 2,8-Di(thiophenoxy)-11-trifluoromethyl-dithieno[2,3-b]-[3,2-g]-5,5-difluoro-5-bora-3a,4a-diaza-s-indacene] | 694 | 715 | 105 000 M^−1 cm^−1 | 
7 | COc1cc(-c2cc3c(s2)=CC2=C(C(F)(F)F)c4cc5sc(-c6cc(OC)c(OC)c(OC)c6)cc5n4[B-](F)(F)[N+]=32)cc(OC)c1OC [SBDPiR730, 2,8-Di(3,4,5-trimethoxyphenyl)-11-trifluoromethyl-dithieno[2,3-b]-[3,2-g]-5,5-difluoro-5-bora-3a,4a-diaza-s-indacene] | 728 | 761 | 140 000 M^−1 cm^−1 | 
8 | COc1ccc(-c2cc3c(s2)=CC2=C(C(F)(F)F)c4cc5sc(-c6ccc(OC)cc6)cc5n4[B-](F)(F)[N+]=32)cc1 [SBDPiR731, 2,8-Di(4-methoxyphenyl)-11-trifluoromethyl-dithieno[2,3-b]-[3,2-g]-5,5-difluoro-5-bora-3a,4a-diaza-s-indacene] | 731 | 755 | 185 000 M^−1 cm^−1 | 
9 | F[B-]1(F)n2c(cc3sc(-c4cccs4)cc32)C(C(F)(F)F)=C2C=c3sc(-c4cccs4)cc3=[N+]21 [SBDPiR735, 2,8-Di(thiophenyl)-11-trifluoromethyl-dithieno[2,3-b]-[3,2-g]-5,5-difluoro-5-bora-3a,4a-diaza-s-indacene] | 733 | 763 | 125 000 M^−1 cm^−1 | 
10 | Oc1ccc(-c2cc3c(s2)=CC2=C(C(F)(F)F)c4cc5sc(-c6ccc(O)cc6)cc5n4[B-](F)(F)[N+]=32)cc1 [SBDPiR740, 2,8-Di(4-hydroxyphenyl)-11-trifluoromethyl-dithieno[2,3-b]-[3,2-g]-5,5-difluoro-5-bora-3a,4a-diaza-s-indacene] | 738 | 763 | 101 000 M^−1 cm^−1 | 
11 | F[B-]1(F)n2c(cc3sc(C=Cc4ccccc4)cc32)C(C(F)(F)F)=C2C=c3sc(C=Cc4ccccc4)cc3=[N+]21 [SBDPiR755, 2,8-Di(styryl)-11-trifluoromethyl-dithieno[2,3-b]-[3,2-g]-5,5-difluoro-5-bora-3a,4a-diaza-s-indacene] | 753 | 785 | 110 000 M^−1 cm^−1 | 
12 | COc1ccc(C=Cc2cc3c(s2)=CC2=C(C(F)(F)F)c4cc5sc(C=Cc6ccc(OC)cc6)cc5n4[B-](F)(F)[N+]=32)cc1 [SBDPiR790, 2,8-Di(4-(methoxy-phenyl)vinyl)-11-trifluoromethyl-dithieno[2,3-b]-[3,2-g]-5,5-difluoro-5-bora-3a,4a-diaza-s-indacene] | 786 |  | 85 000 M^−1 cm^−1 | in vivo fluorescence emission image ([4]; 15 minutes postinjection, ex 760 nm / em 830 nm): most of the dye still remained in the peritoneal cavity; in vivo fluorescence emission image ([4]; 3 hours postinjection): all skin area showed relatively bright emission with intense bright spots in mid-body; in vivo fluorescence emission image ([4]; 6 hours postinjection): an intense emission was observed in the tumor area; in vivo fluorescence emission image ([4]; 24 hours postinjection): brighter emission was observed at the tumor site than other body
13 | CN(C)c1ccc(-c2cc3c(s2)=CC2=C(C(F)(F)F)c4cc5sc(-c6ccc(N(C)C)cc6)cc5n4[B-](F)(F)[N+]=32)cc1 [SBDPiR840, 2,8-Di(4-N,N,dimethylaminophenyl)-11-trifluoromethyl-dithieno[2,3-b]-[3,2-g]-5,5-difluoro-5-bora-3a,4a-diaza-s-indacene] | 841 |  |  | 
